Values after ≈ are worked out from the molar mass of the structure shown.
Each molecule was assayed on IgG fraction of the antiserum raised to immunogen A (hapten A-BSA). Conditions: not given.
Assay type: binding, sheep
Method: Aqueous solutions of the immunogens prepared in Examples 7 and 8 were formulated with Freund's Complete Adjuvant (FCA) to form emulsions consisting of 4 mg/ml immunogen A and 2 mg/ml immunogen B in 50% (v/v) FCA. Three sheep were immunized with each emulsion (1° immunizations), 0.25 ml being subcutaneously injected at each of four sites in the flank of each animal. The next immunizations (first boosts) contained 2 mg/ml immunogen A and 1 mg/ml immunogen B. Subsequent immunizations (boosts […]) contained 1 mg/ml of each immunogen. All boosts were emulsified in 50% (v/v) Freund's Incomplete Adjuvant (FIA) and administered to the appropriate sheep in the same manner as the 1° immunizations, at monthly intervals for 1 year. Blood sampling took place 7 to 14 days after each boost. Each sample was processed to produce antiserum which was further purified by caprylic acid and ammonium sulfate precipitation to yield an immunoglobulin G (IgG) fraction. The IgG fraction was evaluated by competitive ELISA microtiter plate assay, as described in Example 12 below.
(a) The wells of an enhanced binding 96-well polystyrene microtiter plate were coated with the IgG fraction of the antiserum raised to immunogen A (hapten A-BSA) (Example 7), diluted in 10 mM Tris, pH8.5 (125 μl/well). The appropriate antibody coating dilution was determined using standard ELISA chequerboard techniques. The plate was incubated for 2 hours at 37° C., washed 4 times with Tris-buffered saline containing Tween 20 (TBST) and tapped dry. […] 75 μl of conjugate A (hapten A-HRP) (Example 10), diluted in Tris buffer containing EDTA, D-mannitol, sucrose, thimerosal and BSA, was added to each of the wells. The appropriate dilution of conjugate was also determined using standard ELISA chequerboard techniques. The plate was incubated at 37° C. for 2 hours. The excess unbound conjugate was removed by washing 6 times over a 10 minute period with TBST. 125 μl of tetramethylbenzedine (TMB) substrate solution was added to each well of the plate that was then incubated for 15 to 20 minutes in the dark at room temperature. The reaction was terminated by addition of 125 μl 0.2M H2SO4 to each well. The absorbance was then measured at 450 nm using a microtiter plate reader.
With `CN1CC[C@]23c4c5ccc(O)c4O[C@H]2[C@@H](O)C=C[C@H]3[C@H]1C5` [Morphine] the “% CR” value was less than 1.7%. `COC1=CC=C2[C@H]3Cc4ccc(OC)c5c4[C@@]2(CCN3C)[C@H]1O5` [Thebaine] was tested, and the “% CR” value was 4.3%.

Same assay, conditions: concentration of test opiate that causes 50% displacement of signal; Table 3, Example 13 (a)
For `COC1=CC=C2[C@H]3Cc4ccc(OC)c5c4[C@@]2(CCN3C)[C@H]1O5` [Thebaine], the “IC50, OP” value was 0.2032 µg/mL (≈ 0.653 µM).

Same assay, conditions: percentage cross-reactivity based on specificity to oxycodone; Table 1
For `COc1ccc2c3c1O[C@H]1C(=O)CC[C@@]4(O)[C@@H](C2)NCC[C@]314` [Noroxycodone], the “% CR” value was less than 1.7%. With `COc1ccc2c3c1O[C@H]1C(=O)CC[C@@]4(O)[C@@H](C2)N(C)CC[C@]314` [Oxycodone] the “% CR” value was 100.0%. With `CN1CC[C@]23c4c5ccc(O)c4O[C@H]2C(=O)CC[C@@]3(O)[C@H]1C5` [Oxymorphone] the “% CR” value was 26.5%.

Same assay, conditions: standard concentration 0.5 ng/ml
`COc1ccc2c3c1O[C@H]1C(=O)CC[C@@]4(O)[C@@H](C2)NCC[C@]314` [Noroxycodone] was tested, and the “% B/B0” value was 99.3%. With `COc1ccc2c3c1O[C@H]1C(=O)CC[C@@]4(O)[C@@H](C2)N(C)CC[C@]314` [Oxycodone] the “% B/B0” value was 88.6%. With `CN1CC[C@]23c4c5ccc(O)c4O[C@H]2C(=O)CC[C@@]3(O)[C@H]1C5` [Oxymorphone] the “% B/B0” value was 93.0%.

Same assay, conditions: standard concentration 1 ng/ml
For `COc1ccc2c3c1O[C@H]1C(=O)CC[C@@]4(O)[C@@H](C2)NCC[C@]314` [Noroxycodone], the “% B/B0” value was 100.2%. In the case of `COc1ccc2c3c1O[C@H]1C(=O)CC[C@@]4(O)[C@@H](C2)N(C)CC[C@]314` [Oxycodone], the “% B/B0” value was 82.2%. `CN1CC[C@]23c4c5ccc(O)c4O[C@H]2C(=O)CC[C@@]3(O)[C@H]1C5` [Oxymorphone] was tested, and the “% B/B0” value was 90.5%.

Same assay, conditions: standard concentration 5 ng/ml
In the case of `COc1ccc2c3c1O[C@H]1C(=O)CC[C@@]4(O)[C@@H](C2)NCC[C@]314` [Noroxycodone], the “% B/B0” value was 100.3%. `CN1CC[C@]23c4c5ccc(O)c4O[C@H]2C(=O)CC[C@@]3(O)[C@H]1C5` [Oxymorphone] was tested, and the “% B/B0” value was 75.1%.

Same assay, conditions: standard concentration 25 ng/ml
`COc1ccc2c3c1O[C@H]1C(=O)CC[C@@]4(O)[C@@H](C2)NCC[C@]314` [Noroxycodone] was tested, and the “% B/B0” value was 99.3%. In the case of `COc1ccc2c3c1O[C@H]1C(=O)CC[C@@]4(O)[C@@H](C2)N(C)CC[C@]314` [Oxycodone], the “% B/B0” value was 36.1%. In the case of `CN1CC[C@]23c4c5ccc(O)c4O[C@H]2C(=O)CC[C@@]3(O)[C@H]1C5` [Oxymorphone], the “% B/B0” value was 57.1%.

Same assay, conditions: standard concentration 100 ng/ml
`COc1ccc2c3c1O[C@H]1C(=O)CC[C@@]4(O)[C@@H](C2)NCC[C@]314` [Noroxycodone] was tested, and the “% B/B0” value was 97.7%. For `COc1ccc2c3c1O[C@H]1C(=O)CC[C@@]4(O)[C@@H](C2)N(C)CC[C@]314` [Oxycodone], the “% B/B0” value was 22.2%. In the case of `CN1CC[C@]23c4c5ccc(O)c4O[C@H]2C(=O)CC[C@@]3(O)[C@H]1C5` [Oxymorphone], the “% B/B0” value was 39.2%.

Same assay, conditions: standard concentration 250 ng/ml
`COc1ccc2c3c1O[C@H]1C(=O)CC[C@@]4(O)[C@@H](C2)NCC[C@]314` [Noroxycodone] was tested, and the “% B/B0” value was 96.1%. `COc1ccc2c3c1O[C@H]1C(=O)CC[C@@]4(O)[C@@H](C2)N(C)CC[C@]314` [Oxycodone] was tested, and the “% B/B0” value was 14.8%. `CN1CC[C@]23c4c5ccc(O)c4O[C@H]2C(=O)CC[C@@]3(O)[C@H]1C5` [Oxymorphone] was tested, and the “% B/B0” value was 29.2%.

Same assay, conditions: standard concentration 500 ng/ml
`COc1ccc2c3c1O[C@H]1C(=O)CC[C@@]4(O)[C@@H](C2)NCC[C@]314` [Noroxycodone] was tested, and the “% B/B0” value was 92.8%. In the case of `COc1ccc2c3c1O[C@H]1C(=O)CC[C@@]4(O)[C@@H](C2)N(C)CC[C@]314` [Oxycodone], the “% B/B0” value was 10.1%. With `CN1CC[C@]23c4c5ccc(O)c4O[C@H]2C(=O)CC[C@@]3(O)[C@H]1C5` [Oxymorphone] the “% B/B0” value was 24.4%.

Same assay, conditions: standard concentration which produces 50% B/B0; Table 1
With `COc1ccc2c3c1O[C@H]1C(=O)CC[C@@]4(O)[C@@H](C2)NCC[C@]314` [Noroxycodone] the IC50 was greater than 0.5 µg/mL. Work on `COc1ccc2c3c1O[C@H]1C(=O)CC[C@@]4(O)[C@@H](C2)N(C)CC[C@]314` [Oxycodone] yielded an IC50 of 0.0087 µg/mL (≈ 0.0276 µM). Molecule `CN1CC[C@]23c4c5ccc(O)c4O[C@H]2C(=O)CC[C@@]3(O)[C@H]1C5` [Oxymorphone] has an IC50 of 0.0328 µg/mL (≈ 0.109 µM).

These molecules were tested on IgG fraction of the antiserum raised to immunogen B (hapten B-BSA). Conditions: not given.
Assay type: binding, sheep
`CN1CC[C@]23c4c5ccc(O)c4O[C@H]2[C@@H](O)C=C[C@H]3[C@H]1C5` [Morphine] was tested, and the “% CR” value was less than 2.7%. With `COC1=CC=C2[C@H]3Cc4ccc(OC)c5c4[C@@]2(CCN3C)[C@H]1O5` [Thebaine] the “% CR” value was less than 2.7%.

Same assay, conditions: concentration of test opiate that causes 50% displacement of signal; Table 3, Example 13 (b)
For `COC1=CC=C2[C@H]3Cc4ccc(OC)c5c4[C@@]2(CCN3C)[C@H]1O5` [Thebaine], the “IC50, OP” value was greater than 2 µg/mL.

Same assay, conditions: percentage cross-reactivity based on specificity to oxycodone; Table 2
With `COc1ccc2c3c1O[C@H]1C(=O)CC[C@@]4(O)[C@@H](C2)NCC[C@]314` [Noroxycodone] the “% CR” value was 23.4%. In the case of `COc1ccc2c3c1O[C@H]1C(=O)CC[C@@]4(O)[C@@H](C2)N(C)CC[C@]314` [Oxycodone], the “% CR” value was 100.0%. In the case of `CN1CC[C@]23c4c5ccc(O)c4O[C@H]2C(=O)CC[C@@]3(O)[C@H]1C5` [Oxymorphone], the “% CR” value was less than 2.7%.

Same assay, conditions: standard concentration 10 ng/ml
In the case of `COc1ccc2c3c1O[C@H]1C(=O)CC[C@@]4(O)[C@@H](C2)NCC[C@]314` [Noroxycodone], the “% B/B0” value was 90.7%. `COc1ccc2c3c1O[C@H]1C(=O)CC[C@@]4(O)[C@@H](C2)N(C)CC[C@]314` [Oxycodone] was tested, and the “% B/B0” value was 75.7%. With `CN1CC[C@]23c4c5ccc(O)c4O[C@H]2C(=O)CC[C@@]3(O)[C@H]1C5` [Oxymorphone] the “% B/B0” value was 103.8%.

Same assay, conditions: standard concentration 50 ng/ml
With `COc1ccc2c3c1O[C@H]1C(=O)CC[C@@]4(O)[C@@H](C2)NCC[C@]314` [Noroxycodone] the “% B/B0” value was 70.9%. In the case of `COc1ccc2c3c1O[C@H]1C(=O)CC[C@@]4(O)[C@@H](C2)N(C)CC[C@]314` [Oxycodone], the “% B/B0” value was 50.1%. For `CN1CC[C@]23c4c5ccc(O)c4O[C@H]2C(=O)CC[C@@]3(O)[C@H]1C5` [Oxymorphone], the “% B/B0” value was 97.3%.

Same assay, conditions: standard concentration 100 ng/ml
In the case of `COc1ccc2c3c1O[C@H]1C(=O)CC[C@@]4(O)[C@@H](C2)NCC[C@]314` [Noroxycodone], the “% B/B0” value was 65.0%. For `COc1ccc2c3c1O[C@H]1C(=O)CC[C@@]4(O)[C@@H](C2)N(C)CC[C@]314` [Oxycodone], the “% B/B0” value was 41.9%. In the case of `CN1CC[C@]23c4c5ccc(O)c4O[C@H]2C(=O)CC[C@@]3(O)[C@H]1C5` [Oxymorphone], the “% B/B0” value was 95.0%.

Same assay, conditions: standard concentration 250 ng/ml
For `COc1ccc2c3c1O[C@H]1C(=O)CC[C@@]4(O)[C@@H](C2)NCC[C@]314` [Noroxycodone], the “% B/B0” value was 52.0%. `CN1CC[C@]23c4c5ccc(O)c4O[C@H]2C(=O)CC[C@@]3(O)[C@H]1C5` [Oxymorphone] was tested, and the “% B/B0” value was 93.5%.

Same assay, conditions: standard concentration 500 ng/ml
In the case of `COc1ccc2c3c1O[C@H]1C(=O)CC[C@@]4(O)[C@@H](C2)NCC[C@]314` [Noroxycodone], the “% B/B0” value was 43.7%. In the case of `COc1ccc2c3c1O[C@H]1C(=O)CC[C@@]4(O)[C@@H](C2)N(C)CC[C@]314` [Oxycodone], the “% B/B0” value was 17.8%. In the case of `CN1CC[C@]23c4c5ccc(O)c4O[C@H]2C(=O)CC[C@@]3(O)[C@H]1C5` [Oxymorphone], the “% B/B0” value was 90.1%.

Same assay, conditions: standard concentration 1000 ng/ml
With `COc1ccc2c3c1O[C@H]1C(=O)CC[C@@]4(O)[C@@H](C2)NCC[C@]314` [Noroxycodone] the “% B/B0” value was 32.5%. For `COc1ccc2c3c1O[C@H]1C(=O)CC[C@@]4(O)[C@@H](C2)N(C)CC[C@]314` [Oxycodone], the “% B/B0” value was 12.2%. With `CN1CC[C@]23c4c5ccc(O)c4O[C@H]2C(=O)CC[C@@]3(O)[C@H]1C5` [Oxymorphone] the “% B/B0” value was 84.2%.

Same assay, conditions: standard concentration 2000 ng/ml
`COc1ccc2c3c1O[C@H]1C(=O)CC[C@@]4(O)[C@@H](C2)NCC[C@]314` [Noroxycodone] was tested, and the “% B/B0” value was 24.4%. In the case of `COc1ccc2c3c1O[C@H]1C(=O)CC[C@@]4(O)[C@@H](C2)N(C)CC[C@]314` [Oxycodone], the “% B/B0” value was 8.3%. For `CN1CC[C@]23c4c5ccc(O)c4O[C@H]2C(=O)CC[C@@]3(O)[C@H]1C5` [Oxymorphone], the “% B/B0” value was 76.7%.

Same assay, conditions: standard concentration which produces 50% B/B0; Table 2
`COc1ccc2c3c1O[C@H]1C(=O)CC[C@@]4(O)[C@@H](C2)NCC[C@]314` [Noroxycodone] showed an IC50 of 0.2335 µg/mL (≈ 0.775 µM). `CN1CC[C@]23c4c5ccc(O)c4O[C@H]2C(=O)CC[C@@]3(O)[C@H]1C5` [Oxymorphone] showed an IC50 greater than 2 µg/mL.
